Patent US5386017A, “Alkenes for producing chemiluminescent 1, 2-dioxetane compounds” (priority 1990, dated 1995)

Experiments:
[1] = tested on: Aryl esterase (carboxylic ester hydrolase) from porcine liver; assay: Enzymatic triggering of chemiluminescence with aryl esterase; type: biochemical; conditions: for effect of competing substrate on light intensity of dioxetane 2e reaction: 10 μL of […] added at maximum emission, pH 7.6 phosphate buffer, 37° C.
Protocol: A secondary stock solution of the acetate-protected dioxetane 2e was made by evaporating an aliquot of the methylene chloride stock equivalent to 10 micromoles of dioxetane and dissolving in 5.0 mL of 2-methoxyethanol to give a final concentration of 0.002M. […] Buffer solutions prepared in distilled water were 0.05M phosphate pH 7.6 and 8.0, 0.02M Tris (tris-hydroxymethylaminomethane maleate) pH 7.6, and pH 9.0 phosphate/borate buffer. Aryl esterase (also called carboxylic ester hydrolase (P-5221)) from porcine liver was purchased from Sigma Chemical Co. as a suspension of 11 mg of protein per mL in 3.2M (NH4)2 SO4 solution pH 8.0. Each mg of protein is equivalent to 260 Units, where 1 Unit is defined as the amount which will hydrolyze 1 micromole of ethyl butyrate in 1 minute at pH 8.0, 25° C. […] Injection of 1 μL of (0.26 units) of aryl esterase to the stirred solution caused a chemiluminescent signal to appear. The intensity reached a maximum at about 3 minutes and decayed over a 30 minute period.
3.) When distilled water was substituted for the Tris buffer, no chemiluminescence signal was observed, but on adding Tris buffer to this solution light emission similar to that above was produced. […] Addition of untreated enzyme preparation to this solution again produced light. […] The emission could be totally extinguished by addition of sufficient SDS. The decrease in light emission is not due to photophysical quenching of the excited state since thermal decomposition in the same solvent system at elevated temperatures results in readily detectable chemiluminescence.
This type of behavior explains the effect of the addition of the known esterase substrates α-naphthyl acetate and β-naphthyl acetate. […] A solution of 25 μL of the dioxetane stock (0.002M) in 3 mL of pH 7.6 phosphate buffer maintained at 37° C. was treated wtih 5μL of the enzyme to initiate the chemiluminescence. At the point of maximum emission 10 μL of 0.011M solution of either α- or β-naphthyl acetate were added.

[2] = type: physicochemical; conditions: for Ea: activation energy for decomposition in xylene; for log A / k (sec^-1) at 25° C. / t1/2 at 25° C.: decomposition in xylene
Protocol: Rates of dioxetane decomposition were monitored by the decay of chemiluminescence of aerated solutions. A cylindrical Pyrex vial equipped with magnet stir bar was filled with 3-4 mL of the reaction solvent, sealed with a Teflon-lined screw cap and placed in the thermostatted sample block of the chemiluminescence-measuring apparatus (Black Box). Temperature control was provided by an external circulating water bath. Appropriate values for the instrument gain and optical slit size were selected. […]. The vial was sealed with a Teflon-lined screw cap to prevent evaporation when high temperatures were used. Measurement of the signal was begun by opening the shutter. The chemiluminescent decay was generally recorded for at least three half-lives. Calculation of the first-order rate constant, k, from the In(Intensity) vs. time data was performed by a computer program utilizing a standard least-squares treatment. The correlation coefficient, r, was typically at least 0.999 and varied less than 5% between replicate samples. The observed rate was not measurably concentration dependent.
Activation parameters for decomposition of the dioxetanes were calculated from plots of In k vs. l/T (Arrhenius eq.) or In k/t vs. l/T (Eyring eq.) by a standard least-squares linear regression analysis.

[3] = 25° C.; cited from earlier work
[4] = 0.26 units aryl esterase, pH 7.6 Tris buffer, 25° C.

CC(=O)Oc1ccc2ccccc2c1 [β-naphthyl acetate, reference compound]
effect of competing substrate on light intensity of dioxetane 2e reaction [1]: rapid decrease in light intensity was noted followed by restoration of the original intensity within less than one minute

COC1(c2ccc3cc(OC(C)=O)ccc3c2)OOC12C1CC3CC(C1)CC2C3 (centres unmarked) [Dioxetane 2e, 4-(6-Acetoxy-2-naphthyl)-4-methoxyspiro[1,2-dioxetane-3,2' -adamantane]]
duration of thermal chemiluminescence ([2]; aliquot in 3 mL o-xylene at 95° C.): persisted for several hours | chemiluminescence signal without enzyme ([1]; 0.3 μmol in 3.0 mL pH 7.6 Tris buffer, 25° C., before enzyme): no chemiluminescence signal was detected | period of decay of chemiluminescence [1, 4]: 30 min | time to maximum chemiluminescence intensity [1, 4]: about 3 minutes

COC1(c2ccc3cc(O[Si](C)(C)C(C)(C)C)ccc3c2)OOC12C1CC3CC(C1)CC2C3 (centres unmarked) [Dioxetane 2c]
Ea [2]: 27.0 | log A [2]: 11.7 | k (sec^-1) at 25° C. [2]: 8.72e-09 s⁻¹ | t1/2 at 25° C. [2]: 2.5 yrs

COC1(c2ccc3cc(O)ccc3c2)OOC12C1CC3CC(C1)CC2C3 (centres unmarked) [Dioxetane 2b, 4-(6-Hydroxy-2-naphthyl)-4-methoxyspiro[1,2-dioxetane-3,2'-adamantane]]
Ea [2]: 29.7 | log A [2]: 13.3 | k (sec^-1) at 25° C. [2]: 3.83e-09 s⁻¹ | t1/2 at 25° C. [2]: 5.7 yrs

Oc1ccc(C23OCCOC2(c2ccccc2)OO3)cc1 (centres unmarked) [deprotonated dioxetane (X=O^-)]
decomposition rate relative to the protonated form (X=OH) [3]: 5.7×10^6 times faster

CC(=O)Oc1cccc2ccccc12 [α-naphthyl acetate, reference compound]
effect of competing substrate on light intensity of dioxetane 2e reaction [1]: rapid decrease in light intensity was noted followed by restoration of the original intensity within less than one minute

CCCCCCCCCCCCOS(=O)(=O)[O-].[Na+] [sodium lauryl sulfate (SDS), sodium lauryl sulfate, reference compound]
effect of enzyme inhibitor on light emission ([1]; added at maximum emission, Tris buffer, 1.5 μL enzyme): irreversible decrease in the intensity

COC1(c2ccc3ccccc3c2)OOC12C1CC3CC(C1)CC2C3 (centres unmarked) [Dioxetane 2a, 4-Methoxy-4-(2-naphthyl)spiro[1,2-dioxetane-3,2'-adamantane]]
Ea [2]: 29.7 | log A [2]: 13.2 | k (sec^-1) at 25° C. [2]: 3.17e-09 s⁻¹ | t1/2 at 25° C. [2]: 6.9 yrs
